From PMC12406196, “Anticoronavirus Activity of Uridine Glycoconjugates Containing a 1,2,3-Triazole Moiety” (Journal of Medicinal Chemistry, 2025)

System: SARS-CoV-2 S protein (S2 domain)
Format: cell-based
Conditions: Western blot with S2-specific antibodies

SMILES	S2 domain levels in the medium of SC-VLP-producing cells
CC(=O)OC[C@H]1O[C@@H](SCn2cc(COC[C@H]3O[C@@H](n4ccc(=O)[nH]c4=O)[C@H](O[Si](C)(C)C(C)(C)C)[C@@H]3O[Si](C)(C)C(C)(C)C)nn2)[C@H](OC(C)=O)[C@@H](OC(C)=O)[C@@H]1OC(C)=O [Compound 24, 2′,3′-di-O-tert-Butyldimethylsilyl-5′-O-[(1-(2″,3″,4″,6″-tetra-O-acetyl-β-D-glucopyranosylthiomethyl)-1,2-3-triazol-4-yl)-methyl]-uridine]	minor alterations
CC(=O)OC[C@H]1O[C@@H](SCc2cn(C[C@H]3O[C@@H](n4ccc(=O)[nH]c4=O)[C@H](O[Si](C)(C)C(C)(C)C)[C@@H]3O[Si](C)(C)C(C)(C)C)nn2)[C@H](OC(C)=O)[C@@H](OC(C)=O)[C@@H]1OC(C)=O [Compound 20, 2′,3′-di-O-tert-Butyldimethylsilyl-5′-deoxy-5′-[4-(2″,3″,4″,6″-tetra-O-acetyl-β-D-glucopyranosylthiomethyl)-1,2-3-triazol-1-yl]-uridine]	minor alterations
CC(=O)OC[C@H]1O[C@@H](OCc2cn(C[C@H]3O[C@@H](n4ccc(=O)[nH]c4=O)[C@H](O[Si](C)(C)C(C)(C)C)[C@@H]3O[Si](C)(C)C(C)(C)C)nn2)[C@H](OC(C)=O)[C@@H](OC(C)=O)[C@H]1OC(C)=O [Compound 15, 2′,3′-di-O-tert-Butyldimethylsilyl-5′-deoxy-5′-[4-(2″,3″,4″,6″-tetra-O-acetyl-β-D-galactopyranosyloxymethyl)-1,2-3-triazol-1-yl]-uridine]	minor alterations
CC(=O)OC[C@H]1O[C@@H](SCc2cn(C[C@H]3O[C@@H](n4ccc(=O)[nH]c4=O)[C@H](O[Si](C)(C)C(C)(C)C)[C@@H]3O[Si](C)(C)C(C)(C)C)nn2)[C@H](OC(C)=O)[C@@H](OC(C)=O)[C@H]1OC(C)=O [Compound 21, 2′,3′-di-O-tert-Butyldimethylsilyl-5′-deoxy-5′-[4-(2″,3″,4″,6″-tetra-O-acetyl-β-D-galactopyranosylthiomethyl)-1,2-3-triazol-1-yl]-uridine]	more pronounced reduction
